16 molecules from patent publication US7504226B2, “Methods relating to treatment of atherosclerosis” (Cambridge Theranostics Ltd., priority 2001, dated 2009) can be followed below.

The test system of series [1] is anti-Chlamydia abzymes. The series is classed as biochemical, human. Details: key to In-vitro Inhibition: + = inhibition; − = no inhibition. The conditions noted are these: for In-vitro Inhibition: abzyme activity, metal chelators; for Anti-Abzyme activity: control 21.7.
The conditions of series [2]: human, in vivo.
For a further series, the system named is anti-Chlamydia IgG. The series is classed as in vivo, human. The settings on record: immuno-fluorescent assay, group summary.
Series [3] relates to anti-Chlamydia abzymes. The series is classed as in vivo, human. The conditions noted are these: for Anti-Chlamydia abzyme activity: individual patients (last line: mean); for Anti-Chlamydia abzymes activity: Table 27 group summary; for individuals positive for abzymes / individuals positive for abzymes (fraction) / abzyme activity of individuals reporting taking aspirin: + aspirin.

In series [4] the test system is patients with ischaemic heart disease. The experiment in a line: Severity of angina pectoris by modified Rose-Blackburn Questionnaire. The series is classed as in vivo, human. Also noted: Score by modified Rose-Blackburn Questionnaire / Rose Blackthorn Score Day 0: scale not given here. The settings on record: for Score by modified Rose-Blackburn Questionnaire: individual patients (last line of each group: mean). The source says:
The progression of the clinical condition of the patients was monitored by the use of the modified Bruce Protocol for treadmill exercise/stress ECG testing and on the Rose-Blackburn Questionnaire (Cardiovascular Survey Methods. WHO, Geneva, 1968).

Another series concerns patients with angina. The experiment in a line: Clinical condition of angina patients treated with anti-microbial agent. The series is classed as in vivo, human. The settings on record: for Clinical condition: individual patients; for tablets of nitroglycerine daily: patient 5.
Series [5] relates to anti-Chlamydia abzymes. The series is classed as biochemical, human.
A further series concerns lesion IgG. The series is classed as biochemical, human.
[6] abbreviates: IHD patients negative for anti-Chlamydia IgG, individual patients.
Setting [7] is: Chlamydia treated with 1% detergents or 10% solution of DMSO.

Where “and” joins values, the source holds several entries; their conditions need not be identical. Equal values may be shown once. Entries after “also recorded” stand apart in the source; their conditions may differ. Read-outs that look alike come from different tables or passages of the source. Marks after values point to notes of the source that are not given here.

For `O=C(O)c1ccccn1` [Picolinic acid], the “Result (inhibition of abzymes)” value with anti-Chlamydia abzymes [1] (10 μM of each agent) is “Positive”. In the series on anti-Chlamydia abzymes [1], the “In-vitro Inhibition” value was “+”.
Consider `O=[N+]([O-])OCC(CO[N+](=O)[O-])O[N+](=O)[O-]` [Glyceryl Trinitrate], for which the Anti-Abzyme activity in the series on anti-Chlamydia abzymes [1] (4.4 μM), in the series on anti-Chlamydia abzymes [1] (22 μM), in the series on anti-Chlamydia abzymes [1] (44 μM) and with anti-Chlamydia abzymes [1] (220 μM) was 0 μM MDA/ml each time.
As to `O=[N+]([O-])O[C@H]1CO[C@H]2[C@@H]1OC[C@H]2O[N+](=O)[O-]` [Isosorbide Dinitrate], the Anti-Abzyme activity in the series on anti-Chlamydia abzymes [1] (42 μM) and with anti-Chlamydia abzymes [1] (211 μM) was 0 μM MDA/ml each time.
As for `CC[C@H]1OC(=O)[C@H](C)[C@@H](O[C@H]2C[C@@](C)(OC)[C@@H](O)[C@H](C)O2)[C@H](C)[C@@H](O[C@@H]2O[C@H](C)C[C@H](N(C)C)[C@H]2O)[C@](C)(O)C[C@@H](C)CN(C)[C@H](C)[C@@H](O)[C@]1(C)O` [Azithromycin], the adverse reactions result in series [2] is given as “No adverse reactions”. The “Anti-Chlamydia IgG” value in the series on anti-Chlamydia IgG (60 days after treatment) is reported as 0 (titers)^−1; in the series with anti-Chlamydia IgG (before treatment), 43.6 (titers)^−1. Further, the “Abzyme activity Day 0” value in the series on anti-Chlamydia abzymes [3] (setting [6]) was 15 and 90 and 80 and 40. Besides, the “Abzyme activity Day 60” value in the series on anti-Chlamydia abzymes [3] (setting [6]) is 6.7 (2×) and 3.3 and 0. Besides, the Anti-Chlamydia abzyme activity in the series on anti-Chlamydia abzymes [3] (Table 15, 15 days after the start of the treatment) was 60 μM MDA/ml and 0 μM MDA/ml (3×) and 8.3 μM MDA/ml and 6.7 μM MDA/ml (3×) and 33 μM MDA/ml and 75 μM MDA/ml and 19.6 μM MDA/ml; in the series on anti-Chlamydia abzymes [3] (Table 15, 30 days after the start of the treatment), 37 μM MDA/ml and 0 μM MDA/ml (3×) and 28 μM MDA/ml and 3.3 μM MDA/ml (2×) and 10 μM MDA/ml and 78 μM MDA/ml and 17.7 μM MDA/ml; in the series on anti-Chlamydia abzymes [3] (Table 15, stable angina, 500 mg once per day, before treatment), 40 μM MDA/ml (2×) and 50 μM MDA/ml and 15 μM MDA/ml and 10 μM MDA/ml and 35 μM MDA/ml and 85 μM MDA/ml and 30 μM MDA/ml (2×) and 45.9 μM MDA/ml and 90 μM MDA/ml and 80 μM MDA/ml; with anti-Chlamydia abzymes [3] (Therapy Group A, IHD, 500 mg daily, before treatment) it was 90 μM MDA/ml and 80 μM MDA/ml and 40 μM MDA/ml (2×) and 50 μM MDA/ml and 15 μM MDA/ml and 28 μM MDA/ml and 35 μM MDA/ml and 85 μM MDA/ml and 30 μM MDA/ml (2×) and 47.5 μM MDA/ml; with anti-Chlamydia abzymes [3] (Therapy Group A, 15 days after the start of treatment) it was 6.7 μM MDA/ml (3×) and 0 μM MDA/ml (3×) and 60* μM MDA/ml and 8.3 μM MDA/ml and 33 μM MDA/ml and 75* μM MDA/ml and 52* μM MDA/ml and 22.5 μM MDA/ml; with anti-Chlamydia abzymes [3] (Therapy Group A, 30 days after the start of treatment) it was 78** μM MDA/ml and 0 μM MDA/ml (3×) and 37* μM MDA/ml and 28** μM MDA/ml and 3.3 μM MDA/ml (2×) and 10 μM MDA/ml (2×) and 78* μM MDA/ml and 22.5 μM MDA/ml. Further, the Anti-Chlamydia abzyme activity in the series with anti-Chlamydia abzymes [3] (Therapy Group A, 45 days after the start of treatment) is 17 μM MDA/ml and 0 μM MDA/ml (5×) and 20* μM MDA/ml and 43* μM MDA/ml and 3.3 μM MDA/ml (2×) and 5.0 μM MDA/ml and 7.4 μM MDA/ml; in the series with anti-Chlamydia abzymes [3] (Therapy Group A, 60 days after the start of treatment) it was 3.3 μM MDA/ml and 6.7 μM MDA/ml (2×) and 0 μM MDA/ml (7×) and 0.5 μM MDA/ml and 1.6 μM MDA/ml. For the same molecule, the Anti-Chlamydia abzymes activity is 1.6 ± 0.89 ^ μM/MDA/ml in the series with anti-Chlamydia abzymes [3] (60 days after treatment) and 47.5 ± 8.96 μM/MDA/ml in the series on anti-Chlamydia abzymes [3] (before treatment). For the same molecule, the “Rose Blackthorn Score Day 0” value in series [4] (setting [6]) was 21 and 22 and 12 and 19. The “Clinical Status modified Rose G., Blackburn H. Questionnaire” value in series [4] (group summary, before treatment) is on record as 19.4 ± 1.79. The “Score by modified Rose-Blackburn Questionnaire” value in series [4] (60 days after start of the treatment) was 19 and 10 and 13 and 16 and 18 and 15 (2×) and 8 and 11 and 17 (2×); in series [4] (before treatment), 22 and 12 and 19 and 23 and 21 and 25 (3×) and 16 and 10 and 15 and 19.4 ± 1.79. Also, the Clinical condition result in the series on patients with angina (after 15 days of treatment) is reported as “angina class II;; also recorded: Stable condition;”; in the series with patients with angina (before treatment), “angina class III;; also recorded: Unstable angina;”. The “tablets of nitroglycerine daily” value is recorded as 5 tablets of nitroglycerine with patients with angina (after 15 days of treatment) and 10 tablets of in the series on patients with angina (before treatment).
`C[S+](C)[O-]` [DMSO]: in the series on anti-Chlamydia abzymes [5] (setting [7]), the “development of lipid oxidation reaction” value is recorded as “completely abrogated”. Also, the “Level of MDA production by 0.82 μg of lesion IgG” value (“Level of MDA production” for short) in the series with lesion IgG (LDL 480 μg of protein, +1% agent, control 0.49 ± 0.023) came out at 0 µM.
Consider “octylphenoxypoly(ethyleneoxy)ethanol [IGEPAL CA-630]”, for which the “development of lipid oxidation reaction” value in the series with anti-Chlamydia abzymes [5] (setting [7]) is “completely abrogated”. Further, the “oxidation of the lipids in the bacteria by the extracted abzymes” value in the series with anti-Chlamydia abzymes [5] (Chlamydia treated with non-ionic detergent) is reported as “abolished”.
On to `N.N.O=S(=O)(O)O` [ammonium sulphate], for which the “lipid oxidising reaction in the test system” value (from here on “lipid oxidising reaction”) in the series with anti-Chlamydia abzymes [5] is reported as “no lipid oxidising reaction”.
Consider `O=C(O)CN(CCN(CC(=O)O)CC(=O)O)CCN(CC(=O)O)CC(=O)O` [DTPA], for which, in the series with anti-Chlamydia abzymes [1] (10 μM of each agent), the “Result (inhibition of abzymes)” value was “Negative”. Besides, the “In-vitro Inhibition” value in the series on anti-Chlamydia abzymes [1] is “−”.
Consider `CC(=O)Oc1ccccc1C(=O)O` [Aspirin, acetylsalicylic acid], for which the Anti-Chlamydia abzyme activity with anti-Chlamydia abzymes [3] (Therapy Group D, IHD, aspirin 250 mg daily, before treatment) was 103 μM MDA/ml and 253 μM MDA/ml and 178 μM MDA/ml; in the series on anti-Chlamydia abzymes [3] (Therapy Group D, 60 days after the start of treatment), 63 μM MDA/ml and 103 μM MDA/ml and 83.2 μM MDA/ml. In addition, the “Level of activity of anti-Chlamydia abzymes” value with anti-Chlamydia abzymes [3] (individual CHD patients, 7 days after starting to take 250 mg of aspirin daily) was “undetectably low level and 20 μM MDA/ml and 0 μM MDA/ml”; in the series with anti-Chlamydia abzymes [3] (individual CHD patients, before taking aspirin), 100 μM MDA/ml and 45 μM MDA/ml (2×); in the series with anti-Chlamydia abzymes [3] (patient F, Silent Myocardial Ischaemia, aspirin intake 250 mg daily), 10 μM MDA/ml; in the series with anti-Chlamydia abzymes [3] (patient F, 7 days after re-starting to take 250 mg aspirin daily), 20 μM MDA/ml; with anti-Chlamydia abzymes [3] (patient F, after stopping taking aspirin for 7 days), 65 μM MDA/ml. The “inhibition of the abzyme activity” value in the series on anti-Chlamydia abzymes [3] (one CHD patient, after a week of 250 mg daily) is 5 fold. Further, the “individuals positive for abzymes” value with anti-Chlamydia abzymes [3] (stable angina class I) is reported as 17%; in the series on anti-Chlamydia abzymes [3] (stable angina class II), 27%; in the series with anti-Chlamydia abzymes [3] (stable angina class III) it was 60%; in the series on anti-Chlamydia abzymes [3] (unstable angina IV), 86%. Further, the “individuals positive for abzymes (fraction)” value with anti-Chlamydia abzymes [3] (stable angina class I) was 1/6; in the series on anti-Chlamydia abzymes [3] (stable angina class II), 4/15; in the series on anti-Chlamydia abzymes [3] (stable angina class III) it was 6/10; in the series with anti-Chlamydia abzymes [3] (unstable angina IV), 6/7. The “abzyme activity of individuals reporting taking aspirin” value in the series on anti-Chlamydia abzymes [3] (stable angina class I, individuals (r25: mean, n = 6)) is 0 (3×) and 10 and 10.0 and 5 and 45; in the series on anti-Chlamydia abzymes [3] (stable angina class II, individuals (r25: mean, n = 15)), 10 (2×) and 0 (4×) and 5 (4×) and 25 and 22.5 and 3.3 and 16.7 and 9.2 and 30; in the series with anti-Chlamydia abzymes [3] (stable angina class III, individuals (r25: mean, n = 10)), 0 (3×) and 5 and 35 and 15 and 30 and 105 and 25.5 and 20 and 45; with anti-Chlamydia abzymes [3] (unstable angina IV, individuals (r25: mean, n = 7)) it was 0 and 37 and 90 and 100 and 86.7 and 180 and 130 and 70. Moreover, the “Result (inhibition of abzymes)” value with anti-Chlamydia abzymes [1] (10 μM of each agent) was “Positive”. Also, in the series on anti-Chlamydia abzymes [1], the “In-vitro Inhibition” value is reported as “+”.
Take `CC(C)(S)[C@@H](N)C(=O)O` [Penicillamine]: the “Result (inhibition of abzymes)” value in the series on anti-Chlamydia abzymes [1] (10 μM of each agent) is listed as “Positive”. Also, the “In-vitro Inhibition” value in the series with anti-Chlamydia abzymes [1] is given as “+”.
Take “polyoxyethylene Octyl phenyl ether [TRITON X-100]”: in the series with anti-Chlamydia abzymes [5], the “development of lipid oxidation reaction” value is “completely abrogated” and the “oxidation of the lipids in the bacteria by the extracted abzymes” value is “abolished”.
On to `O=C[O-].[Na+]` [sodium formate], for which the “Level of MDA production” value with lesion IgG (LDL 480 μg of protein, +0.1 M agent, control 0.49 ± 0.023) worked out at 0 µM.
As to `[N-]=[N+]=[N-].[Na+]` [NaN3], in the series with anti-Chlamydia abzymes [1], the “Result (inhibition of abzymes)” value is “Positive”.
Turning to `O=C(O)c1ccccc1` [benzoic acid], in the series with lesion IgG, the “Level of MDA production” value came to 0 µM.
For the molecule `C=O` [formalin], the “lipid oxidising reaction” value with anti-Chlamydia abzymes [5] is “no lipid oxidising reaction”.
Consider `CCCCCCCCCCCCOS(=O)(=O)[O-].[Na+]` [SDS], for which the “lipid oxidising reaction” value in the series with anti-Chlamydia abzymes [5] is given as “no lipid oxidising reaction”.
